Measured values published in ChEMBL document CHEMBL5247653, “Discovery of Clinical Candidate ACT-777991, a Potent CXCR3 Antagonist for Antigen-Driven and Inflammatory Pathologies” (J Med Chem, 2023).
In brackets after ≈: the same amount, converted by molar mass. Activity calls are given as the source filed them. The rule behind the calls is not given here.

Assays:
CYP3A4 = CYP3A4 (Homo sapiens, UniProt P08684); test: […] recombinant human CYP3A4 mediated drug metabolism in human liver microsomes assessed as intrinsic clearance at 1 uM incubated for 45 mins in presence of NADPH regenerating system by LC-MS/MS analysis; assay type: ADME, Microsome; settings: read-out: CLH
[1] = Protein binding in rat plasma assessed as fraction unbound at 1 uM incubated for 6 hrs by rapid equilibrium dialysis based LC-MS/MS analysis; assay type: ADME, cell-free
[2] = Protein binding in dog plasma assessed as fraction unbound at 1 uM incubated for 6 hrs by rapid equilibrium dialysis based LC-MS/MS analysis; assay type: ADME, cell-free, Canis lupus familiaris
[3] = Metabolic stability in rat liver microsomes assessed as intrinsic clearance at 1 uM and measured upto 15 mins in presence of NADPH regenerating system by LC-MS/MS analysis; assay type: ADME, Microsome; settings: read-out: CLH
[4] = target: T1, C-X-C chemokine receptor type 3 (Homo sapiens, UniProt P49682); test: Antagonist activity at human CXCR3 expressed in CHO-K1 cells assessed as reduction in CXCL9 induced calcium flux by FLIPR method; assay type: cell-based
T1 sequence (P49682 whole entry): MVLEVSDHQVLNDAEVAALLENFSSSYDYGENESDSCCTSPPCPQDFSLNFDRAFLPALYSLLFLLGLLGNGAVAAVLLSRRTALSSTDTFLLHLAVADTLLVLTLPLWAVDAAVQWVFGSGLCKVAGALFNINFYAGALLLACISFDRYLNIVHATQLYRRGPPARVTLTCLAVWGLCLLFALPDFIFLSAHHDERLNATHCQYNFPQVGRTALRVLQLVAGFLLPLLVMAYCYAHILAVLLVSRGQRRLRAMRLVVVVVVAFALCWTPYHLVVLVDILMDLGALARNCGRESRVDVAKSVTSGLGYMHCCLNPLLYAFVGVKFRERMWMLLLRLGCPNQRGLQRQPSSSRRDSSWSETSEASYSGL

[5] = target: T1, C-X-C chemokine receptor type 3; test: Antagonist activity at human CXCR3 expressed in CHO-K1 cells assessed as reduction in CXCL11 induced calcium flux by FLIPR method; assay type: cell-based
[6] = target: T2, C-X-C chemokine receptor type 3 (Mus musculus, UniProt O88410); test: Antagonist activity at mouse CXCR3 expressed in CHO-K1 cells assessed as reduction in CXCL10 induced calcium flux by FLIPR method; assay type: cell-based
T2 sequence (O88410 whole entry): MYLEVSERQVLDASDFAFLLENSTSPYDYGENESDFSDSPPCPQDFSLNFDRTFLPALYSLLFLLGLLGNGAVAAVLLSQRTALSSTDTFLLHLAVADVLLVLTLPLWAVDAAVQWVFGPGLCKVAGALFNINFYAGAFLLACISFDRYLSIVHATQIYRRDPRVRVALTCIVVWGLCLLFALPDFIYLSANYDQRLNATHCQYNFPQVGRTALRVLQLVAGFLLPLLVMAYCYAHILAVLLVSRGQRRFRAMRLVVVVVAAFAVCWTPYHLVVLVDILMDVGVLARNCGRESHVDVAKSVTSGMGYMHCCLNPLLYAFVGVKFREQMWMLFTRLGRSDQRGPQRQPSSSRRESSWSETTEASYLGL

[7] = target: C-X-C chemokine receptor type 3 (Rattus norvegicus, UniProt Q9JII9); test: Antagonist activity at rat CXCR3 expressed in CHO-K1 cells assessed as reduction in CXCL10 induced calcium flux by FLIPR method; assay type: cell-based
[8] = target: T1, C-X-C chemokine receptor type 3; test: Binding affinity to human CXCR3 expressed in CHO-K1 cell membrane assessed as dissociation constant using tritium-labeled ligand by […] assay; assay type: cell membranes
[9] = target: T3, C-X-C chemokine receptor type 3 (Homo sapiens) (UniProt P49682); test: Binding affinity to CXCR3 (unknown origin) at 10 uM by radioligand binding assay; settings: filed as antagonist
T3 sequence (whole entry): T1 sequence (P49682 whole entry)

[10] = target: N-formyl peptide receptor 2 (Homo sapiens) (UniProt P25090); test: Binding affinity to FPR2 (unknown origin) at 10 uM by radioligand binding assay
[11] = target: T4, C-X-C chemokine receptor type 3 (Mus musculus) (UniProt O88410); test: In vivo antagonist activity at CXCR3 in LPS-induced DBA/1 mouse model assessed as reduction in mouse CXCL10-mediated chemotaxis in CD8+ T cells at 0.02 microg/g, po bid preincubated for 3 days followed by LPS stimulation for 30 mins and measured after 3 days by flow cytometry; assay type: functional, organism-based; parameters: scale not given: the % may be the effect or the level left; settings: T-cell, dose 0.02 µg/g, time 6.0 day
T4 sequence (whole entry): T2 sequence (O88410 whole entry)

[12] = Cmin in LPS-induced DBA/1 mouse plasma at 0.02 microg/g, po bid preincubated for 3 days followed by LPS stimulation for 30 mins and measured after 72 hrs by flow cytometry; assay type: ADME, organism-based; settings: dose 0.02 µg/g, time 3 day, read-out: Cmin
[13] = Cmax in LPS-induced DBA/1 mouse plasma at 0.006 microg/g, po bid preincubated for 3 days followed by LPS stimulation for 30 mins and measured after 72 hrs by flow cytometry; assay type: ADME, organism-based; parameters: dose 0.006 µg/g, time 6 day, route po; settings: 0.006 µg/g
[14] = Cmin in LPS-induced DBA/1 mouse plasma at 0.06 microg/g, po bid preincubated for 3 days followed by LPS stimulation for 30 mins and measured after 72 hrs by flow cytometry; assay type: ADME, organism-based; settings: dose 0.06 µg/g, time 6 day, read-out: Cmin
[15] = Solubility of compound in FeSSIF at 37 degreeC; assay type: ADME
Cytochrome P450 3A4 = Cytochrome P450 3A4 (Homo sapiens, UniProt P08684); test: Time dependent inhibition of CYP3A4 (unknown origin); assay type: ADME
[16] = Metabolic stability in rat liver microsomes assessed as M3 metabolite formation at 1 uM and measured upto 15 mins in presence of NADPH regenerating system by LC-MS/MS analysis; assay type: ADME, Microsome; settings: 0.25 h
[17] = Metabolic stability in dog hepatocyte assessed as M4 metabolite formation at 1 uM and measured upto 15 mins in presence of NADPH regenerating system by LC-MS/MS analysis; assay type: ADME, cell-based, Canis lupus familiaris; settings: hepatocytes, 0.25 h
[18] = Protein binding in rabbit plasma assessed as fraction unbound at 0.1 to 300 ug/ml using 14C-labeled ligand by rapid equilibrium dialysis; assay type: ADME, cell-free, Oryctolagus cuniculus; settings: at 0.1 to 300 µg/mL, dose 0.1-300 µg/ml
[19] = Protein binding in dog plasma assessed as fraction unbound at 0.1 to 300 ug/ml using 14C-labeled ligand by rapid equilibrium dialysis; assay type: ADME, cell-free, Canis lupus familiaris; settings: at 0.1 to 300 µg/mL, dose 0.1-300 µg/ml
[20] = AUC (0 to last) in Beagle dog at 2.5 mg/kg,iv or 2.5 mg/kg, po; assay type: ADME, organism-based, Canis lupus familiaris; parameters: dose 2.5 mg/kg, route iv; settings: in vivo
[21] = Cmax in Beagle dog at 2.5 mg/kg,iv or 2.5 mg/kg, po; assay type: ADME, organism-based, Canis lupus familiaris; parameters: dose 2.5 mg/kg, route iv; settings: in vivo
[22] = Volume of distribution at steady state in Beagle dog at 2.5 mg/kg,iv or 2.5 mg/kg, po; assay type: ADME, organism-based, Canis lupus familiaris; settings: in vivo, read-out: Vdss
[23] = Volume of distribution at steady state in Cynomolgus monkey at 1.0 mg/kg,iv or 1.25 mg/kg, po; assay type: ADME, organism-based, Macaca fascicularis; settings: in vivo, read-out: Vdss
[24] = In vivo inhibition of hERG in po dosed dog assessed as increase in QTc interval; assay type: toxicity, organism-based, Canis lupus familiaris
[25] = Genotoxicity in Salmonella typhimurium TA98 at 5000 ug; assay type: toxicity; settings: salmonella enterica subsp. enterica serovar typhimurium; dose 5000 µg
NIH3T3 = test: Phototoxicity in BALB/c mouse 3T3 cells upto 100 ug/ml in presence of irradiation; assay type: toxicity, cell-based; settings: dose < 100 µg/ml

Chain of Cytochrome P450 3A4 (P08684 whole entry): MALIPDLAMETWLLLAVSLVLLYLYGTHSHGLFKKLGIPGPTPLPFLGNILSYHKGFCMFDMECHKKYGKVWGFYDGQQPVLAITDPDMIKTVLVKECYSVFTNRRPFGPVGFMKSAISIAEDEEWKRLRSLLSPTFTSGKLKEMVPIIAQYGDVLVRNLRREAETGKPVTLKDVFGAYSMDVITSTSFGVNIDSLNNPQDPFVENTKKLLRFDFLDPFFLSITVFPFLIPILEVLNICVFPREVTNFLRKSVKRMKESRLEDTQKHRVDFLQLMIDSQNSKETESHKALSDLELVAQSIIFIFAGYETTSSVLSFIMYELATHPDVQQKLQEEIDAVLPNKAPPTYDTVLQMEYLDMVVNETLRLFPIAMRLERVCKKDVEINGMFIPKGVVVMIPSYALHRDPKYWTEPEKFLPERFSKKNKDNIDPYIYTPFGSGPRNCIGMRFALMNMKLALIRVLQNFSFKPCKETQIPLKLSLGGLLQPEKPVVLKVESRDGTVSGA
Chain of CYP3A4 (P08684 whole entry): as above
Chain of C-X-C chemokine receptor type 3 (Rattus norvegicus, UniProt Q9JII9) (Q9JII9 whole entry): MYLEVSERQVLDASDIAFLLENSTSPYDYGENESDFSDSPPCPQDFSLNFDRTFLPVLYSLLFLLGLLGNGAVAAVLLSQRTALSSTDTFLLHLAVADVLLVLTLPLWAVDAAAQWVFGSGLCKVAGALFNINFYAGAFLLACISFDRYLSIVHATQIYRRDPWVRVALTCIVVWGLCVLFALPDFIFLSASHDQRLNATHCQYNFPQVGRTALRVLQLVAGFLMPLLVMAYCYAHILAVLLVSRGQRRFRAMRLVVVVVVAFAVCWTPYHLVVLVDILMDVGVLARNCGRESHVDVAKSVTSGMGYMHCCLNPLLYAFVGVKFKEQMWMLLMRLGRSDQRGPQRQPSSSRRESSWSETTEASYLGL
Chain of N-formyl peptide receptor 2 (Homo sapiens) (P25090 whole entry): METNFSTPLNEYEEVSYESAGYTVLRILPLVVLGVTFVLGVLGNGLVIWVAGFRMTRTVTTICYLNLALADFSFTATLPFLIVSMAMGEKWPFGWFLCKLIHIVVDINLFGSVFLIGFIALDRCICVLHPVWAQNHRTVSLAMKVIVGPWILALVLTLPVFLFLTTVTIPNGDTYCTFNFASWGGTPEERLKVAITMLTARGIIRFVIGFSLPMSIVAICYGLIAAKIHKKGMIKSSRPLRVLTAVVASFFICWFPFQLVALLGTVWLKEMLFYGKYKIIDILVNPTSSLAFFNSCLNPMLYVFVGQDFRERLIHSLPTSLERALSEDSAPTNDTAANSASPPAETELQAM

- microsomal CLint at 1 µM (CYP3A4): < 0.04 µL/min/mg
- fraction unbound at 6 h, 1 µM [1]: 0.09
- fraction unbound at 6 h, 1 µM [2]: 0.34
- microsomal CLint at 1 µM [3]: < 10 µL/min/mg
- IC50 [4]: 3.3 nM
- IC50 [5]: 5.3 nM
- IC50 [6]: 1.5 nM
- IC50 [7]: 2.2 nM
- Kd [8]: 4.6 nM
- Activity [9]: Active
- Activity [10]: inactive
- Activity [11]: 45%
- concentration at 72 h [12]: 0.099 µg/mL
- Cmax [13]: 0.042 µg/mL
- concentration at 72 h [14]: 0.267 µg/mL
- solubility [15]: 1.25 mg/mL (≈ 2270 µM)
- IC50 (Cytochrome P450 3A4): > 50000 nM
- Stability [16]: Unstable
- Stability [17]: Unstable
- fraction unbound [18]: 0.1
- fraction unbound [19]: 0.48
- AUC(0-t) [20]: 3.91 µg·h/mL
- Cmax [21]: 0.91 µg/mL
- Vd [22]: 1.5 L/kg
- Vd [23]: 1.3 L/kg
SMILES: Cc1ncn(CC(=O)N2CCN(c3sc(C(F)(F)F)nc3-c3cnc(C(F)(F)F)nc3)C[C@H]2CCO)n1
- inhibition (INH) [24]: Toxic
- Activity [25]: Non-Toxic
- Activity (NIH3T3): Non-Toxic
